Measurements as given in ChEMBL document CHEMBL1201862, “PubChem BioAssay data set” (2004).
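Test compounds were applied to cells in 96-well plates for 48 hours at 5 doses. At the GI50, growth is halved.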 Calls of active or inactive are those of the source. Cut-off read from the data, not from the text of the source: active = GI50 up to about 1.1 µM and inactive = higher.

What was measured:
Assay in all cases: DTP human tumour cell line panel, 48 h
[1] = system: A498
[2] = system: A549
[3] = system: CAKI-1
[4] = system: EKVX
[5] = system: HCT-116
[6] = system: M14
[7] = system: MCF7
[8] = system: MDA-MB-435
[9] = system: MDA-N
[10] = system: MOLT-4
[11] = system: Malme-3M
[12] = system: NCI-H460
[13] = system: NCI-H522
[14] = system: OVCAR-5
[15] = system: RPMI-8226
[16] = system: SF-539
[17] = system: SK-MEL-28
[18] = system: SK-OV-3
[19] = system: SNB-19
[20] = system: U-251

Row | SMILES | GI50 [1] | GI50 [2] | GI50 [3] | GI50 [4] | GI50 [5] | GI50 [6] | GI50 [7] | GI50 [8] | GI50 [9] | GI50 [10] | GI50 [11] | GI50 [12] | GI50 [13] | GI50 [14] | GI50 [15] | GI50 [16] | GI50 [17] | GI50 [18] | GI50 [19] | GI50 [20]
1 | COc1ccc2c(c1)C(OC)C1c3c(cc4c(c3-2)OCO4)CCN1C (stereo not given) | 1.82 µM (inactive) | 2.92 µM (inactive) | 2.12 µM (inactive) | 4.34 µM (inactive) | 2.1 µM (inactive) | 2.64 µM (inactive) | 2.67 µM (inactive) | 3.34 µM (inactive) | 2.86 µM (inactive) | 1.95 µM (inactive) | 2 µM (inactive) | 2.82 µM (inactive) | 1.56 µM (inactive) | 3.13 µM (inactive) | 3.46 µM (inactive) | 2.54 µM (inactive) | 3.88 µM (inactive) | 4.5 µM (inactive) | 3.12 µM (inactive) | 3.67 µM (inactive)
2 | O=[N+]([O-])c1cccc2nccc(NCCCO)c12 | 10.4 µM (inactive) | 16.5 µM (inactive) | 13.8 µM (inactive) | 6.79 µM (inactive) | 13 µM (inactive) | 12.9 µM (inactive) | 12.7 µM (inactive) | 11.7 µM (inactive) | 9.66 µM (inactive) | 13.9 µM (inactive) | 10.2 µM (inactive) | 11 µM (inactive) | 6 µM (inactive) | 20.1 µM (inactive) | 13.6 µM (inactive) | 14.5 µM (inactive) | 12.4 µM (inactive) | 23.3 µM (inactive) | 25.1 µM (inactive) | 14.1 µM (inactive)
3 | O=C(N/N=C(COc1ccccc1Cl)\N=C\c1cccnc1)c1ccncc1 | > 100 µM (inactive) | > 100 µM (inactive) | > 100 µM (inactive) | > 100 µM (inactive) | > 100 µM (inactive) | > 100 µM (inactive) | > 100 µM (inactive) | > 100 µM (inactive) | > 100 µM (inactive) | > 100 µM (inactive) | > 100 µM (inactive) | > 100 µM (inactive) | > 100 µM (inactive) | > 100 µM (inactive) | > 100 µM (inactive) | > 100 µM (inactive) | > 100 µM (inactive) | > 100 µM (inactive) | > 100 µM (inactive) | > 100 µM (inactive)
4 | CCCC(=O)Nc1cc(C(=O)N2C[C@H]3C[C@@]34C2=CC(=O)c2[nH]cc(C)c24)n(COC)c1 | 0.741 µM (active) | 1.51 µM (inactive) | 0.215 µM (active) | 0.843 µM (active) | 0.182 µM (active) | 0.662 µM (active) | 0.0303 µM (active) | 0.19 µM (active) | 0.582 µM (active) | 0.00879 µM (active) | 0.105 µM (active) | 0.317 µM (active) | 0.0553 µM (active) | 1.16 µM (inactive) | 0.71 µM (active) | 0.177 µM (active) | 0.208 µM (active) | 1.29 µM (inactive) | 0.498 µM (active) | 0.114 µM (active)
5 | c1cc(Sc2nc(Sc3ccncc3)nc(Sc3ccncc3)n2)ccn1 | > 100 µM (inactive) | > 100 µM (inactive) | > 100 µM (inactive) | > 100 µM (inactive) | > 100 µM (inactive) | > 100 µM (inactive) | > 100 µM (inactive) | > 100 µM (inactive) | > 100 µM (inactive) | > 100 µM (inactive) | > 100 µM (inactive) | > 100 µM (inactive) | > 100 µM (inactive) | > 100 µM (inactive) | > 100 µM (inactive) | > 100 µM (inactive) | > 100 µM (inactive) | > 100 µM (inactive) | > 100 µM (inactive) | > 100 µM (inactive)
